Test results reported in patent publication US20110111016A1, “NON-DNA BASE-CONTAINING POLYNUCLEOTIDE COMPOSITIONS AND THEIR USE FOR THE MODULATION OF IMMUNE RESPONSES” (priority 2009, published 2011).

Columns and labels:
Format in all cases: cell-based
human TLR8 = molecular target: T1, human TLR8 (Homo sapiens, UniProt Q9NR97); experiment: NF-κB activation (secreted alkaline phosphatase reporter) in HEK293 cells expressing human TLR8; settings: HEK293/hTLR8 cell line; polynucleotide final concentration 10 μg/mL; 16-20 hours
T1 construct: host or cells: HEK293
T1 sequence (Q9NR97 27-1041): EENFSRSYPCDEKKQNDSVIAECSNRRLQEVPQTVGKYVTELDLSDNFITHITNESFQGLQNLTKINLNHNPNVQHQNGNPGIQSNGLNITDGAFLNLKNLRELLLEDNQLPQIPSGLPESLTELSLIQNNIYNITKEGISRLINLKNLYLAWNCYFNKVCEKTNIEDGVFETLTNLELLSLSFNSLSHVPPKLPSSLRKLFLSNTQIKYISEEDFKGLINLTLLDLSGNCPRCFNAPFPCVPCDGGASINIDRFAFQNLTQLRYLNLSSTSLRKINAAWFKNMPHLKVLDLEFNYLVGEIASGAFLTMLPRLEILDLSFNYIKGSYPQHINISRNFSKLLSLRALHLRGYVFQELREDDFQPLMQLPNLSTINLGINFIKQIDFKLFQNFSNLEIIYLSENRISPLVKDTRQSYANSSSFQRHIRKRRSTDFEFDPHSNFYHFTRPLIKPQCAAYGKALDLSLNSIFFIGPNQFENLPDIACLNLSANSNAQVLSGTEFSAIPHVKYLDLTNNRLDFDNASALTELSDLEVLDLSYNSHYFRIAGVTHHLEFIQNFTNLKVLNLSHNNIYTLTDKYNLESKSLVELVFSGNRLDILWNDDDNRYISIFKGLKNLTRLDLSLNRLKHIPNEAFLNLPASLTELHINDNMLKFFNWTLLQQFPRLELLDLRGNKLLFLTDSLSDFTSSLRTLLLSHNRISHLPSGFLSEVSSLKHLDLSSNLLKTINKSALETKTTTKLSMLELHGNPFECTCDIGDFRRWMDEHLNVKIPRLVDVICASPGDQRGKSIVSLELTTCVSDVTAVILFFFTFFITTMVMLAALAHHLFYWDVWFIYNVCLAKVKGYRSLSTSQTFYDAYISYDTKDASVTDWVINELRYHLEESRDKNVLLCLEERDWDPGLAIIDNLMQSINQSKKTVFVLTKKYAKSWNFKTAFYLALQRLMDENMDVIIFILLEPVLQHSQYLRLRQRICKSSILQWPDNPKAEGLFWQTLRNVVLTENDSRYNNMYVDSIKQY
Method: Toll-like receptors (TLR) are known to interact with a number of natural and synthetic molecules that can function as immune adjuvants. Examples of these molecules are Poly (I:C) polynucleotides, lipopolysaccharide and CpG-containing polynucleotides. […] TLR engagement was determined by measurement of secreted alkaline phosphatase, under the control of a reporter inducible by NF-κB. Appropriate positive controls were used for each TLR. The non-DNA base-containing polynucleotides were dissolved in sterile water at a concentration of 100 μg/mL, and used at a final concentration of 10 μg/mL. HEK293 cells containing the appropriate TLR and NF-κB reporting system (InvivoGen, San Diego, Calif., USA) were placed in wells of 96 well plates (25,000-50,000 cells, in a final volume of 200 μL medium designed for the detection of NF-κB induced secreted alkaline phosphatase expression), and incubated with non-DNA base-containing polynucleotides or positive controls for 16-20 hours. TLR activating activity was determined by measurement of absorbance at 650 nm wavelength using a Coulter AD340C absorbance detector. The results shown are expressed as Optical Density (OD).

human TLR4 = molecular target: T2, human TLR4 (Homo sapiens, UniProt O00206+Q9Y6Y9); experiment: NF-κB activation (secreted alkaline phosphatase reporter) in HEK293 cells expressing human TLR4; settings: HEK293/hTLR4 cell line; polynucleotide final concentration 10 μg/mL; 16-20 hours
T2 construct: host or cells: HEK293
Method: (§1) Toll-like receptors (TLR) are known to interact with a number of natural and synthetic molecules that can function as immune adjuvants. Examples of these molecules are Poly (I:C) polynucleotides, lipopolysaccharide and CpG-containing polynucleotides. The interaction of non-DNA base-containing polynucleotides (SEQ ID NOs: 1-3) to interact with TLR and induce down-stream signaling was tested by assessing NF-κB activation in HEK293 cells expressing human TLR2, 3, 4, 5, 7, 8 and 9. TLR engagement was determined by measurement of secreted alkaline phosphatase, under the control of a reporter inducible by NF-κB. Appropriate positive controls were used for each TLR. The non-DNA base-containing polynucleotides were dissolved in sterile water at a concentration of 100 μg/mL, and used at a final concentration of 10 μg/mL. HEK293 cells containing the appropriate TLR and NF-κB reporting system (InvivoGen, San Diego, Calif., USA) were placed in wells of 96 well plates (25,000-50,000 cells, in a final volume of 200 μL medium designed for the detection of NF-κB induced secreted alkaline phosphatase expression), and incubated with non-DNA base-containing polynucleotides or positive controls for 16-20 hours. TLR activating activity was determined by measurement of absorbance at 650 nm wavelength using a Coulter AD340C absorbance detector. The results shown are expressed as Optical Density (OD).

human TLR5 = molecular target: T3, human TLR5 (Homo sapiens, UniProt O60602); experiment: NF-κB activation (secreted alkaline phosphatase reporter) in HEK293 cells expressing human TLR5; settings: HEK293/hTLR5 cell line; polynucleotide final concentration 10 μg/mL; 16-20 hours
T3 construct: host or cells: HEK293
Method: as §1

NF-κB control cells = experiment: NF-κB reporter control cells (secreted alkaline phosphatase); settings: polynucleotide final concentration 10 μg/mL, 16-20 hours
Method: as §1

T2 sequence (Q9Y6Y9 17-160): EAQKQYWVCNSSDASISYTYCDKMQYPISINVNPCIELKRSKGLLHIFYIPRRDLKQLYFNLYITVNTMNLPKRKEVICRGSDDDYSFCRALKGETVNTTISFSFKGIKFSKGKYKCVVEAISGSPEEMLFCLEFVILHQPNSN
T2 sequence (O00206 24-839): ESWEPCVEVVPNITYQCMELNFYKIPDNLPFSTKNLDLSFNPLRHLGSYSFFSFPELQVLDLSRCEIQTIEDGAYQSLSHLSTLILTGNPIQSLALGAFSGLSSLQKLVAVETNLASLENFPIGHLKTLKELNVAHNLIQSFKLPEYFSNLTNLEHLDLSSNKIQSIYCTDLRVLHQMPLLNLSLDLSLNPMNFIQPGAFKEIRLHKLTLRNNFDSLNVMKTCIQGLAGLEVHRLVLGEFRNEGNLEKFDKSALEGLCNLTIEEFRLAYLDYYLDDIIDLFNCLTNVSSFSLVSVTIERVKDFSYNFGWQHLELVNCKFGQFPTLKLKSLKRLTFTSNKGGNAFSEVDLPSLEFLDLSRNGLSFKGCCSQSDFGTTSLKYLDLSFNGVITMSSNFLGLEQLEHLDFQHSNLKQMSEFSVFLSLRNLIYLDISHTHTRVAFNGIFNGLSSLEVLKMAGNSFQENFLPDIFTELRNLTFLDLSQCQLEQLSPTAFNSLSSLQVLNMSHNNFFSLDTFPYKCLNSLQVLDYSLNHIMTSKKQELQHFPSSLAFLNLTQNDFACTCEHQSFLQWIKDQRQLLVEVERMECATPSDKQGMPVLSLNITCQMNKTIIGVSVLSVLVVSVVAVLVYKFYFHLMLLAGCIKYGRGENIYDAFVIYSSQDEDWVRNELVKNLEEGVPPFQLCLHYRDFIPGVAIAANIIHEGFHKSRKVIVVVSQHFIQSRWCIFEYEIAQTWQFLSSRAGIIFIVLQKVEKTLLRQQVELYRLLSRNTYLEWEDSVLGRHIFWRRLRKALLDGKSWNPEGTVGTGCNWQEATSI
T3 sequence (O60602 21-858): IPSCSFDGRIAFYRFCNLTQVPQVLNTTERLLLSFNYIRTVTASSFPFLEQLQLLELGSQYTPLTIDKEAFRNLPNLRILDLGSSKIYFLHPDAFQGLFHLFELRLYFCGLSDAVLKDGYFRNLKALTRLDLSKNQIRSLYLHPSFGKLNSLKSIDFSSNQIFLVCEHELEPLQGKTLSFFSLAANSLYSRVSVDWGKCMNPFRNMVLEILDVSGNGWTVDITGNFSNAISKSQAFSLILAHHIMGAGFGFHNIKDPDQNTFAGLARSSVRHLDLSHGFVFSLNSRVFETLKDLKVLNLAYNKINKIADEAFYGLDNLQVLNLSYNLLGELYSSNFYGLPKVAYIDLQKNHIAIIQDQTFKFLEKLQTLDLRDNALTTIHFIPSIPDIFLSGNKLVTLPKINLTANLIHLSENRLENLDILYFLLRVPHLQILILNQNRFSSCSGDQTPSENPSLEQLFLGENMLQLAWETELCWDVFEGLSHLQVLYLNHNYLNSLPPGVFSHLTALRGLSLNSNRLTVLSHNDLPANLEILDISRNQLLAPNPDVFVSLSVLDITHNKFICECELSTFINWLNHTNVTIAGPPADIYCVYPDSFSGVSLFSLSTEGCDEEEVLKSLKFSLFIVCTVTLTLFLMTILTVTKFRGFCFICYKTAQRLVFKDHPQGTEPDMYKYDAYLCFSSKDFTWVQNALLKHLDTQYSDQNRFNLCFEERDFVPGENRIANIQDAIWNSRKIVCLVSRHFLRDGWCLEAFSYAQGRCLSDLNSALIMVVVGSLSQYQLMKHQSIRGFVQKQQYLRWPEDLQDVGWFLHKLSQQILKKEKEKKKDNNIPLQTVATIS

Substance	TLR activation, Optical Density at 650 nm, hTLR8 (human TLR8)	TLR activation, Optical Density at 650 nm, hTLR4 (human TLR4)	TLR activation, Optical Density at 650 nm, hTLR5 (human TLR5)	Optical Density at 650 nm, NF-κB control cells (NF-κB control cells)
UUGTUU [SEQ ID NO: 2]	0.120	0.052	0.143	0.076
NebGGTGNeb (DNA NGGTGN; Nebularine at both ends, sugar and linkages not given here, further chemistry not given here) [SEQ ID NO: 1, 5′-OH, 3′-OH non-DNA base-containing polynucleotide]	0.118	0.050	0.158	0.078
IIGTII [SEQ ID NO: 3]	0.128	0.050	0.155	0.074
